Assay results published in US5843954A, “Camptothecin derivatives, preparations thereof and antitumor agents” (priority 1994, dated 1998).
Values after ≈ are worked out from the molar mass of the structure shown. Where a name gives a salt, the structure may show the parent alone.

Key:
[1] = Acute toxicity test by intraperitoneal administration; settings: mouse, in vivo, ip, ICR male mice, 1 week observation
Description: Acute toxicity test was conducted by intraperitoneal administration using a group of twenty ICR male mice (4 weeks old, body weight around 20 g).
LD50 value was calculated by the Richfield-Willcokson method from a lethal ratio observing the fate of mice during 1 week after administration of a test compound.

mouse leukemia L1210 = test: Antitumor activity for L1210 (life prolonging effect, mouse leukemia transplanted intraperitoneally); format: in vivo; settings: for minimal effective dose: Mus musculus, L1210, ip, read-out: Minimum effective dose; for 40-day survivors: group of six female CDF1 mice; for Therapeutic Index (Maximum tolerable dose/Minimum effective dose): i.p., L1210, CDF1 mice
Description: (§1) 5×10^5 cells of mouse leukemia L1210 were transplanted intraperitoneally to a group of six female CDF1 mice (7 weeks old, body weight 17-19 g). The test compound was administered intraperitoneally on day 1, 5 and 9 and its life prolonging effect was observed.
(§2) In a case of the administration of a test compound as an acid addition salt the test compound was dissolved in water. The total administration amount was 1.56 mg/kg-400 mg/kg. The antitumor activity was expressed by the value (T/C%) wherein T denotes the mean survival days in the drug administered group and C denotes those in the non administered group. In case of equal to or more than 125% the drug is considered to be effective.

[2] = as above; format: in vivo; settings: mouse, in vivo, ip; numerator of therapeutic index; i.p. total dose; read-out: Maximum tolerable dose
Description: as §1, §2

Water solubility = format: physicochemical
[3] = denominator of therapeutic index, i.p. total dose

Compound	LD50 at 168 h [1]	minimal effective dose (mouse leukemia L1210; [3])	40-day survivors (mouse leukemia L1210; at optimum dose)	Therapeutic Index (Maximum tolerable dose/Minimum effective dose) (mouse leukemia L1210)	MTD [2]	solubility (Water solubility)	Optimum dose: Total dose (mouse leukemia L1210; CDF1 mice, i.p. on day 1, 5 and 9, total dose)	T/C % (mouse leukemia L1210; at optimum dose, i.p. on day 1, 5 and 9, mean survival days treated/non administered, >=125% effective)	Minimum effective dose (mouse leukemia L1210; [3])
CCc1c2c(nc3cc(F)ccc13)-c1cc([C@@](O)(CC)C(=O)NCCN(C)C)c(COC(=O)c3ccncc3)c(=O)n1C2 [Compound C41]	220 mg/kg	< 1.56 mg/kg	2/6	> 16	25 mg/kg				
CCC(=O)OCc1c([C@@](O)(CC)C(=O)NCCN(C)C)cc2n(c1=O)Cc1c-2nc2ccc(O)cc2c1CC [Compound C28]	341 mg/kg	12.5 mg/kg	0/6	16	200 mg/kg	> 56 mg/mL			
CCc1c2c(nc3ccc(O)cc13)-c1cc([C@@](O)(CC)C(=O)NCCN(C)C)c(COC(=O)c3cccc(F)c3)c(=O)n1C2 [Compound C38]	421 mg/kg	12.5 mg/kg	0/6	16	200 mg/kg	6 mg/mL (≈ 9.96 mM)			
CCCC(=O)OCc1c([C@@](O)(CC)C(=O)NCCN(C)C)cc2n(c1=O)Cc1c-2nc2ccc(Cl)cc2c1CC [Compound C4]	142 mg/kg	< 1.56 mg/kg	1/6	> 4	6.25 mg/kg	41 mg/mL (≈ 72 mM)			
CCC(=O)OCc1c([C@@](O)(CC)C(=O)NCCN(C)C)cc2n(c1=O)Cc1c-2nc2cc(F)c(OC)cc2c1CC [Compound C20]	84.5 mg/kg	< 1.56 mg/kg	0/6	> 2	3.13 mg/kg	> 60 mg/mL			
CCc1c2c(nc3ccc(Br)cc13)-c1cc([C@@](O)(CC)C(=O)NCCN(C)C)c(COC(=O)CCSC)c(=O)n1C2 [Compound C6]	116 mg/kg	< 1.56 mg/kg	1/6	> 4	6.25 mg/kg	25 mg/mL (≈ 38.7 mM)			
CCc1c2c(nc3cc(Cl)c(Cl)cc13)-c1cc([C@@](O)(CC)C(=O)NCCN(C)C)c(COC(=O)CCSC)c(=O)n1C2 [Compound C19]	94.8 mg/kg	< 1.56 mg/kg	0/6	> 2	3.13 mg/kg	24 mg/mL (≈ 37.8 mM)			
CCc1c2c(nc3ccc(C)cc13)-c1cc([C@@](O)(CC)C(=O)NCCN(C)C)c(COC(=O)CCSC)c(=O)n1C2 [Compound C7]	234 mg/kg	3.13 mg/kg	5/6	32	100 mg/kg	21 mg/mL (≈ 36.2 mM)			
CCc1c2c(nc3ccc(O)cc13)-c1cc([C@@](O)(CC)C(=O)NCCN(C)C)c(COC(C)=O)c(=O)n1C2 [Compound C45]	376 mg/kg	100 mg/kg	0/6	4	400 mg/kg				
CCCC(=O)OCc1c([C@@](O)(CC)C(=O)NCCN(C)C)cc2n(c1=O)Cc1c-2nc2cc(Cl)c(Cl)cc2c1CC [Compound C18]	92.3 mg/kg	< 1.56 mg/kg	0/6	> 2	3.13 mg/kg	35 mg/mL (≈ 58 mM)			
CCc1c2c(nc3cc(F)c(F)cc13)-c1cc([C@@](O)(CC)C(=O)NCCN(C)C)c(COC(=O)c3ccc(OC)cc3)c(=O)n1C2 [Compound C16]	65.6 mg/kg	6.25 mg/kg	0/6	2	12.5 mg/kg	6 mg/mL (≈ 9.45 mM)			
CCc1c2c(nc3cc(F)ccc13)-c1cc([C@@](O)(CC)C(=O)NCCN(C)C)c(COC(=O)CCSC)c(=O)n1C2 [Compound C10]	146 mg/kg	1.56 mg/kg	1/6	8	12.5 mg/kg	> 62 mg/mL			
CC[C@@](O)(C(=O)NCCN(C)C)c1cc2n(c(=O)c1COC(=O)CCSC)Cc1c-2nc2cc(Br)ccc2c1C [Compound C2]	241 mg/kg	3.13 mg/kg	0/6	8	25 mg/kg	> 67 mg/mL			
CCC(=O)OCc1c([C@@](O)(CC)C(=O)NCCN(C)C)cc2n(c1=O)Cc1c-2nc2cc(Cl)c(Cl)cc2c1CC [Compound C17]	112 mg/kg	1.56 mg/kg	2/6	4	6.25 mg/kg	> 64 mg/mL			
CCc1c2c(nc3ccc(C)cc13)-c1cc([C@@](O)(CC)C(=O)NCCN(C)C)c(COC(=O)c3ccncc3)c(=O)n1C2 [Compound C39]	320 mg/kg	3.13 mg/kg	3/6	16	50 mg/kg				
CCOCCC(=O)OCc1c([C@@](O)(CC)C(=O)NCCN(C)C)cc2n(c1=O)Cc1c-2nc2ccc(O)cc2c1CC [Compound C47]	471 mg/kg	50 mg/kg	0/6	4	200 mg/kg				
CCCC(=O)OCc1c([C@@](O)(CC)C(=O)NCCN(C)C)cc2n(c1=O)Cc1c-2nc2cc(F)c(C)cc2c1CC [Compound C24]	203 mg/kg	1.56 mg/kg	1/6	> 16	25 mg/kg	42 mg/mL (≈ 74.1 mM)			
CCc1c2c(nc3cc(F)c(OC)cc13)-c1cc([C@@](O)(CC)C(=O)NCCN(C)C)c(COC(=O)CCSC)c(=O)n1C2 [Compound C22]	68.6 mg/kg		0/6			> 65 mg/mL			
CCOc1ccc2nc3c(c(C)c2c1)Cn1c-3cc([C@@](O)(CC)C(=O)NCCN(C)C)c(COC(=O)CCSC)c1=O [Compound C1]	164 mg/kg	1.56 mg/kg	0/6	4	6.25 mg/kg	> 64 mg/mL			
CCc1c2c(nc3ccc(Cl)cc13)-c1cc([C@@](O)(CC)C(=O)NCCN(C)C)c(COC(=O)c3ccncc3)c(=O)n1C2 [Compound C40]	213 mg/kg	1.56 mg/kg	1/6	4	6.25 mg/kg				
CCc1c2c(nc3ccc(OC(C)=O)cc13)-c1cc([C@@](O)(CC)C(=O)NCCN(C)C)c(COC(=O)c3ccc(F)cc3)c(=O)n1C2 [Compound C48]	418 mg/kg	25 mg/kg	0/6	8	200 mg/kg				
CCc1c2c(nc3cc(F)c(C)cc13)-c1cc([C@@](O)(CC)C(=O)NCCN(C)C)c(COC(=O)c3ccncc3)c(=O)n1C2 [Compound C42]	310 mg/kg	1.56 mg/kg	2/6	> 8	12.5 mg/kg				
CCC(=O)OCc1c([C@@](O)(CC)C(=O)NCCN(C)C)cc2n(c1=O)Cc1c-2nc2cc(F)c(F)cc2c1CC [Compound C13]	67.6 mg/kg		0/6			> 59 mg/mL			
CCCC(=O)OCc1c([C@@](O)(CC)C(=O)NCCN(C)C)cc2n(c1=O)Cc1c-2nc2cc(F)c(F)cc2c1CC [Compound C14]	98.3 mg/kg		1/6			> 60 mg/mL			
CCc1c2c(nc3ccc(O)cc13)-c1cc([C@@](O)(CC)C(=O)NCCN(C)C)c(COC(=O)C(C)C)c(=O)n1C2 [Compound C46]	478 mg/kg	25 mg/kg	0/6	16	400 mg/kg				
CCc1c2c(nc3cc(F)c(F)cc13)-c1cc([C@@](O)(CC)C(=O)NCCN(C)C)c(COC(=O)CCSC)c(=O)n1C2 [Compound C15]	85.2 mg/kg		0/6			> 64 mg/mL			
CC=CC(=O)OCc1c([C@@](O)(CC)C(=O)NCCN(C)C)cc2n(c1=O)Cc1c-2nc2ccc(O)cc2c1CC [Compound C34]						> 59 mg/mL			
CCc1c2c(nc3cc(F)c(OC)cc13)-c1cc([C@@](O)(CC)C(=O)NCCN(C)C)c(COC(=O)c3ccncc3)c(=O)n1C2 [Compound C43]	165 mg/kg	1.56 mg/kg	2/6	> 4	6.25 mg/kg				
CC[C@@](O)(C(=O)O)c1cc2n(c(=O)c1CO)Cc1cc3ccccc3nc1-2 [CPT-Na salt, reference compound]	227 mg/kg		0/6	6	60 mg/kg		60 mg/kg	203%	10 mg/kg
